Values of other authors in patent US8741809B2, “Liquid pyraclostrobin-containing crop protection formulations” (BASF SE, priority 2008, dated 2014).

Conditions: at 20° C.

Structure (SMILES)	solubility of the respective solvent in water
CC(=O)c1ccccc1 [acetophenone]	(5.5 g/l)
OCc1ccccc1 [benzyl alcohol]	(39 g/l)
O=C1CCCCC1 [cyclohexanone]	(24 g/l)
